This note sets out measurements from patent US20240368104A1, “Novel Dialkoxynaphtho[2,3-C]Furan-1(3H)-One Derivatives and Pharmaceutical Composition For Preventing or Treating Respiratory Disease or SARS-COV-2 Infection Disease, Comprising Same” (priority 2021, published 2024).

The structures appear in SMILES notation. pIC50: −log10 of the molar value. Where two headings read alike, the source gives them in different places.

A short description of one data set: in vitro. Conditions: African green monkey.
The test system of a further data set is SARS-COV-2. The experiment in a line: microbe, parasite or virus in culture. The format is cell-based. Set-up: SI (Selectivity Index, CC50/IC50): unit not given here. Conditions: for SI (Selectivity Index, CC50/IC50): SARS-COV-2, values >50 assumed to be 50; for pIC50: read-out: SARS-COV-2 inhibition (IC50).
The mark [1] stands for this setting: Severe acute respiratory syndrome coronavirus 2, Vero, 24 h.
The mark [2] stands for this setting: Severe acute respiratory syndrome coronavirus 2, Vero cells, 24 hours infection.

For the compound `COc1cc2cc3c(c(-c4ccc(N(C)c5ccc(N(C)C(C)=O)cc5)nc4)c2cc1OC)C(=O)OC3.Cl` [Example 236, N-(4-((5-(6,7-dimethoxy-3-oxo-1,3-dihydronaphtho[2,3-c]furan-4-yl)pyridin-2-yl)(methyl)amino)phenyl)-N-methylacetamide], the CC50 in the data set “in vitro” is greater than 50 µM. In the data set with SARS-COV-2, the “SI (Selectivity Index, CC50/IC50)” value was 30.25. Besides, the pIC50 in the data set on SARS-COV-2 (setting [1]) is 5.78.

On to `CNc1cccc(-c2c3c(cc4cc(OC)c(OC)cc24)COC3=O)c1` [Example 257, 6,7-dimethoxy-9-(3-(methylamino)phenyl)naphtho[2,3-c]furan-1(3H)-one], for which the CC50 in “in vitro” is greater than 50 µM. Also, the “SI (Selectivity Index, CC50/IC50)” value in the data set with SARS-COV-2 came to 6.24. In addition, the pIC50 with SARS-COV-2 (setting [2]) was 5.10.

As to `CCCCN(C)c1ccc(-c2c3c(c(OC)c4cc(OC)c(OC)cc24)C(=O)OC3)cn1.Cl` [Example 261, 4-(6-(butyl(methyl)amino)pyridin-3-yl)-6,7,9-trimethoxynaphtho[2,3-c]furan-1(3H)-one], the CC50 in “in vitro” is greater than 50 µM. In the data set with SARS-COV-2, the “SI (Selectivity Index, CC50/IC50)” value was determined as 4.21. The pIC50 in the data set on SARS-COV-2 (setting [1]) was 4.92.

Compound `CNc1ccc(-c2c3c(cc4cc(OC)c(OC)cc24)COC3=O)cc1` [Example 246, 6,7-dimethoxy-9-(4-(methylamino)phenyl)naphtho[2,3-c]furan-1(3H)-one] had a CC50 in “in vitro” greater than 50 µM. Further, the “SI (Selectivity Index, CC50/IC50)” value with SARS-COV-2 worked out at 15.18. Besides, in the data set with SARS-COV-2 (setting [2]), the pIC50 was 5.48.

As to `CC[C@@H]1CCCCN1c1ncc(-c2c3c(cc4cc(OC)c(OC)cc24)COC3=O)cn1` [Example 113, (R)-9-(2-(2-ethylpiperidin-1-yl)pyrimidin-5-yl)-6,7-dimethoxynaphtho[2,3-c]furan-1(3H)-one], in “in vitro”, the CC50 was greater than 50 µM. Besides, the “SI (Selectivity Index, CC50/IC50)” value in the data set on SARS-COV-2 was 50.52. In the data set on SARS-COV-2 (setting [2]), the pIC50 was 6.00.

On to `COc1cc2cc3c(c(-c4cc5c(cc4OC(=O)C(N)C(C)C)OCO5)c2cc1OC)C(=O)OC3.Cl` (stereo in doubt) [Example 269, 6-(6,7-dimethoxy-3-oxo-1,3-dihydronaphtho[2,3-c]furan-4-yl)benzo[d][1,3]dioxol-5-yl L-valinate hydrochloride], for which the CC50 in the data set “in vitro” is greater than 50 µM. Also, the “SI (Selectivity Index, CC50/IC50)” value in the data set with SARS-COV-2 was 94.66. In addition, the pIC50 in the data set with SARS-COV-2 (setting [1]) was 6.28.

For `COc1cc2cc3c(c(-c4ccc(-n5nc(N(C)C)nc5SC)nc4)c2cc1OC)C(=O)OC3.Cl` [Example 223, 9-(6-(3-(dimethylamino)-5-(methylthio)-1H-1,2,4-triazol-1-yl)pyridin-3-yl)-6,7-dimethoxynaphtho[2,3-c]furan-1(3H)-one], the CC50 in “in vitro” was greater than 50 µM. The “SI (Selectivity Index, CC50/IC50)” value with SARS-COV-2 was found to be 3.11. In addition, the pIC50 in the data set on SARS-COV-2 (setting [1]) is 4.79.

Consider `COc1cc2cc3c(c(-c4cnc(N(C)C5CCCCC5)nc4)c2cc1OC)C(=O)OC3.Cl` [Example 79, 9-(2-(cyclohexyl(methyl)amino)pyrimidin-5-yl)-6,7-dimethoxynaphtho[2,3-c]furan-1(3H)-one hydrochloride], for which the CC50 in the data set “in vitro” was greater than 50 µM. For the same compound, in the data set with SARS-COV-2, the “SI (Selectivity Index, CC50/IC50)” value is given as 46.19. Besides, the pIC50 in the data set with SARS-COV-2 (setting [1]) was 5.97.

Regarding `CCN(c1ncc(-c2c3c(cc4cc(OC)c(OC)cc24)COC3=O)cn1)C1CCCC1.Cl` [Example 92, 9-(2-(cyclopentyl(ethyl)amino)pyrimidin-5-yl)-6,7-dimethoxynaphtho[2,3-c]furan-1(3H)-one hydrochloride], the CC50 in the data set “in vitro” is greater than 50 µM. Moreover, in the data set with SARS-COV-2, the “SI (Selectivity Index, CC50/IC50)” value is 42.34. In addition, the pIC50 in the data set with SARS-COV-2 (setting [1]) is 5.93.

`COc1cc2cc3c(c(N4CCc5sccc5C4)c2cc1OC)C(=O)OC3` [Example 3, 9-(6,7-dihydrothieno[3,2-c]pyridin-5 (4H)-yl)-6,7-dimethoxynaphtho[2,3-c]furan-1(3H)-one]: the CC50 in “in vitro” was greater than 50 µM. Further, the “SI (Selectivity Index, CC50/IC50)” value with SARS-COV-2 was determined as 8.48. The pIC50 with SARS-COV-2 (setting [2]) was 5.23.

`CCN(c1ncc(-c2c3c(cc4cc(OC)c(OC)cc24)COC3=O)cn1)C(C)C.Cl` [Example 75, 9-(2-(ethyl(isopropyl)amino)pyrimidin-5-yl)-6,7-dimethoxynaphtho[2,3-c]furan-1(3H)-one hydrochloride]: in the data set “in vitro”, the CC50 is greater than 50 µM. Moreover, in the data set on SARS-COV-2, the “SI (Selectivity Index, CC50/IC50)” value amounted to 60.56. In addition, the pIC50 in the data set with SARS-COV-2 (setting [1]) was 6.08.

`COc1cc2cc3c(c(-c4ccc(N5CCCC5)cc4)c2cc1OC)C(=O)OC3` [Example 251, 6,7-dimethoxy-9-(4-(pyrrolidin-1-yl)phenyl)naphtho[2,3-c]furan-1(3H)-one]: the CC50 in “in vitro” is greater than 50 µM. In the data set with SARS-COV-2, the “SI (Selectivity Index, CC50/IC50)” value worked out at 119.39. For the same compound, the pIC50 with SARS-COV-2 (setting [2]) was 6.38.

With `COc1cc2cc3c(c(-c4cnc(N5CCC6(CC5)OCCO6)nc4)c2cc1OC)C(=O)OC3` [Example 89, 9-(2-(1,4-dioxa-8-azaspiro[4.5]decan-8-yl)pyrimidin-5-yl)-6,7-dimethoxynaphtho[2,3-c]furan-1(3H)-one], in the data set “in vitro”, the CC50 is greater than 50 µM. The “SI (Selectivity Index, CC50/IC50)” value with SARS-COV-2 came out at 1.00. The pIC50 with SARS-COV-2 (setting [2]) is less than 4.30.

Take `CCN(CC)CCNc1ncc(-c2c3c(cc4cc(OC)c(OC)cc24)COC3=O)cn1` [Example 58, 9-(2-((2-(diethylamino)ethyl)amino)pyrimidin-5-yl)-6,7-dimethoxynaphtho[2,3-c]furan-1(3H)-one]: the CC50 in the data set “in vitro” is greater than 50 µM. Moreover, the “SI (Selectivity Index, CC50/IC50)” value in the data set with SARS-COV-2 came to 1.66. Moreover, the pIC50 in the data set with SARS-COV-2 (setting [2]) was 4.52.

For `COc1cc2cc3c(c(-c4ccc(N(C)CC(OC)OC)nc4)c2cc1OC)C(=O)OC3` [Example 162, 9-(6-((2,2-dimethoxyethyl)(methyl)amino)pyridin-3-yl)-6,7-dimethoxynaphtho[2,3-c]furan-1(3H)-one], in “in vitro”, the CC50 was greater than 50 µM. Moreover, in the data set with SARS-COV-2, the “SI (Selectivity Index, CC50/IC50)” value stood at 11.63. Further, the pIC50 with SARS-COV-2 (setting [2]) is 5.37.

Regarding `COc1cc2cc3c(c(-c4cnc(N[C@@H](C)c5ccc(F)cc5)nc4)c2cc1OC)C(=O)OC3` [Example 55, (S)-9-(2-((1-(4-fluorophenyl)ethyl)amino)pyrimidin-5-yl)-6,7-dimethoxynaphtho[2,3-c]furan-1(3H)-one], the CC50 in the data set “in vitro” is greater than 50 µM. Also, in the data set with SARS-COV-2, the “SI (Selectivity Index, CC50/IC50)” value is recorded as 4.23. The pIC50 with SARS-COV-2 (setting [2]) was 4.93.

`COc1cc2cc3c(c(-c4ccc(N5CCc6ccccc6C5)nc4)c2cc1OC)C(=O)OC3.Cl` [Example 189, 9-(6-(3,4-dihydroisoquinolin-2 (1H)-yl)pyridin-3-yl)-6,7-dimethoxynaphtho[2,3-c]furan-1(3H)-one] gave a CC50 in “in vitro” greater than 50 µM. In addition, the “SI (Selectivity Index, CC50/IC50)” value in the data set with SARS-COV-2 turned out to be 72.26. For the same compound, in the data set on SARS-COV-2 (setting [1]), the pIC50 is 6.16.

For the compound `COc1cc2cc3c(c(-c4ccc(N(C)CCC5OCCO5)nc4)c2cc1OC)C(=O)OC3` [Example 161, 9-(6-((2-(1,3-dioxolan-2-yl)ethyl)(methyl)amino)pyridin-3-yl)-6,7-dimethoxynaphtho[2,3-c]furan-1(3H)-one], the CC50 in “in vitro” is greater than 50 µM. In addition, the “SI (Selectivity Index, CC50/IC50)” value in the data set with SARS-COV-2 was 7.74. Also, the pIC50 with SARS-COV-2 (setting [2]) was 5.19.

For the compound `COc1cc2cc(CO)c(C(=O)Cl)c(-c3cc4c(cc3O)OCO4)c2cc1OC` [Example 224, 1-(6-hydroxybenzo[d][1,3]dioxol-5-yl)-3-(hydroxymethyl)-6,7-dimethoxy-2-naphthoyl chloride], the CC50 in the data set “in vitro” is greater than 50 µM. For the same compound, the “SI (Selectivity Index, CC50/IC50)” value in the data set on SARS-COV-2 is recorded as 2.63. In addition, the pIC50 with SARS-COV-2 (setting [2]) was 5.72.

As to `COc1cc2cc3c(c(-c4cnc(N5CCc6ccccc6[C@@H]5c5ccccc5)nc4)c2cc1OC)C(=O)OC3` [Example 151, (S)-6,7-dimethoxy-9-(2-(1-phenyl-3,4-dihydroisoquinolin-2 (1H)-yl)pyrimidin-5-yl)naphtho[2,3-c]furan-1(3H)-one], the CC50 in “in vitro” is greater than 50 µM. In the data set on SARS-COV-2, the “SI (Selectivity Index, CC50/IC50)” value is listed as 1.0. Moreover, the pIC50 in the data set with SARS-COV-2 (setting [2]) is less than 4.30.

Turning to `COC(=O)CN(C)c1ncc(-c2c3c(cc4cc(OC)c(OC)cc24)COC3=O)cn1.Cl` [Example 90, methyl N-(5-(6,7-dimethoxy-3-oxo-1,3-dihydronaphtho[2,3-c]furan-4-yl)pyrimidin-2-yl)-N-methyl glycinate hydrochloride], the CC50 in the data set “in vitro” was greater than 50 µM. Moreover, the “SI (Selectivity Index, CC50/IC50)” value with SARS-COV-2 stood at 16.96. Also, the pIC50 in the data set on SARS-COV-2 (setting [1]) is 5.53.

Compound `COc1cc2cc3c(c(-c4ccc5c(N6CCNCC6)ccnc5c4)c2cc1OC)C(=O)OC3` [Example 152, 6,7-dimethoxy-9-(4-(piperazin-1-yl)quinolin-7-yl)naphtho[2,3-c]furan-1(3H)-one] showed a CC50 in “in vitro” greater than 50 µM. Also, the “SI (Selectivity Index, CC50/IC50)” value in the data set with SARS-COV-2 was 2.10. Further, the pIC50 in the data set on SARS-COV-2 (setting [2]) is 4.62.

On to `COc1cc2cc3c(c(-c4cc5c(cc4OC(C)=O)OCO5)c2cc1OC)C(=O)OC3` [Example 274, 6-(6,7-dimethoxy-3-oxo-1,3-dihydronaphtho[2,3-c]furan-4-yl)benzo[d][1,3]dioxol-5-yl acetate], for which, in the data set “in vitro”, the CC50 was greater than 50 µM. In the data set with SARS-COV-2, the “SI (Selectivity Index, CC50/IC50)” value was found to be 19.61. The negative logarithm of the IC50 (pIC50) in the data set on SARS-COV-2 (setting [2]) is 5.59.

As to `COc1cc2cc3c(c(-c4ccc(N(C)C(C)=O)nc4)c2cc1OC)C(=O)OC3` [Example 230, N-(5-(6,7-dimethoxy-3-oxo-1,3-dihydronaphtho[2,3-c]furan-4-yl)pyridin-2-yl)-N-methylacetamide], the CC50 in “in vitro” is greater than 50 µM. The “SI (Selectivity Index, CC50/IC50)” value in the data set with SARS-COV-2 is reported as 2.45. For the same compound, the pIC50 with SARS-COV-2 (setting [2]) is 4.69.

The compound `COc1cc2cc3c(c(-c4cnc(OC)c(-c5nc6ccccc6[nH]5)c4)c2cc1OC)C(=O)OC3` [Example 204, 9-(5-(1H-benzo[d]imidazol-2-yl)-6-methoxypyridin-3-yl)-6,7-dimethoxynaphtho[2,3-c]furan-1(3H)-one] showed a CC50 in “in vitro” of 24.2 µM. In the data set on SARS-COV-2, the “SI (Selectivity Index, CC50/IC50)” value is 0.93. In addition, in the data set on SARS-COV-2 (setting [1]), the pIC50 is 4.59.

`COc1cc2cc3c(c(-c4cnc(N(C)C5CCOCC5)nc4)c2cc1OC)C(=O)OC3` [Example 115, 6,7-dimethoxy-9-(2-(methyl(tetrahydro-2H-pyran-4-yl)amino)pyrimidin-5-yl)naphtho[2,3-c]furan-1(3H)-one] came in with a CC50 in the data set “in vitro” greater than 50 µM. Besides, the “SI (Selectivity Index, CC50/IC50)” value in the data set with SARS-COV-2 came to 48.62. For the same compound, the pIC50 in the data set with SARS-COV-2 (setting [2]) is 5.99.

In general, pIC50 refers to the negative decadic logarithm of the IC50, by convention in mol/L.
